Test results: paper PMC12679848, “Sulphonamide derivatives with a triazine core as novel inducers of apoptosis and pyroptosis in glioblastoma multiforme cells” (Journal of Enzyme Inhibition and Medicinal Chemistry, 2025)

Key:
U-87 MG [1] = assay: Mitochondrial membrane potential (JC-1), U-87 MG; assay type: cell-based, human; details: 1.5 μM, 24 h
Description: The impact of the novel compounds on mitochondrial membrane potential (ΔΨm) was examined. […] In this study, the fluorochrome JC-1 was employed, which, in cells with normally functioning mitochondria, aggregates and accumulates in the hyperpolarized mitochondrial membrane, emitting a red colour. Conversely, when the membrane is damaged, JC-1 breaks down into monomers, emitting green fluorescence. […] For the U-87 MG cell line, these parameters were equal to 54.88 ± 8.36% and 56.13 ± 13.97% of the cell population.
JC-1 (1,1′,3,3′-Tetraethyl-5,5′,6,6′-tetrachloroimidacarbocyanine iodide) (BD Biosciences, San Diego, CA, USA), a lipophilic fluorochrome, was used to evaluate changes in mitochondrial membrane potential. After treatment, cancer cells at a concentration of 1 × 10^6 cells/mL were collected and rinsed twice with PBS. Then, 500 μL JC-1 working solution was added to each sample according to the manufacturer’s protocol. The samples were then incubated for 15 min at 37 °C in a CO2 incubator. After incubation, samples were washed twice with an assay buffer, and 500 μL of each sample was transferred to a BD FACSCanto II flow cytometer (Becton Dickinson Biosciences, San Jose, CA, USA) for analysis, with 10,000 events recorded per sample. Data were analysed using FACSDiva software version 6.1.3 (BD Biosciences Systems, San Jose, CA, USA).

[2] = Annexin V-FITC/PI apoptosis analysis, A172; assay type: cell-based, human; details: human, A172 cells, read-out: Viable cells; for viability at 24 h, 1 µM: A172, 1.0 μM; for viability at 24 h, 1.5 µM: A172, 1.5 μM
Description: (§1) The level of apoptosis induction of the newly synthesised compounds MM118 and MM119 was determined using double staining with Annexin V-FITC and propidium iodide (AV/PI). This method enables the differentiation of four cell populations based on their state: viable cells, necrotic cells, cells in early apoptosis, and late apoptosis. The compounds were analysed on A172 and U-87 MG human glioblastoma multiforme cell lines using concentrations of 1 μM and 1.5 μM over a 24-h exposure period.
(§2) The impact of apoptosis induction by the tested compounds at concentrations of 1 μM and 1.5 μM, as well as by temozolomide at 1.5 μM, was evaluated through annexin V-FITC and propidium iodide (PI) staining with the Apoptosis Detection Kit II (BD Biosciences, San Diego, CA, USA). The glioblastoma cell lines A172 and U-87 MG were then deprived of medium and washed several times with cold phosphate-buffered saline (PBS) solution. The cell suspension was then prepared in the binding buffer provided in the kit at a concentration of 1 × 10^6 cells/mL. From each sample, 100 μL of the cell suspension was transferred to tubes and subsequently treated with 5 μL of Annexin V-FITC and 5 μL of propidium iodide (PI). The tubes were then incubated for 15 min at room temperature in the dark. Following the incubation period, 400 μL of binding buffer was added to each sample, after which the samples were immediately analysed using a BD FACSCanto II flow cytometer (Becton Dickinson Biosciences, San Jose, CA, USA), with 10,000 events recorded per sample. The results were then analysed using FACSDiva Software Version 6.1.3 (BD Biosciences Systems, San Jose, CA, USA).

A172 = assay: Annexin V-FITC/PI apoptosis analysis, A172; assay type: cell-based, human; details: A172, 1.5 μM, 24 h
Description: as §1, §2

T98G = assay: MTT assay, T98G; assay type: cell-based; details: Homo sapiens, 24 h of incubation, read-out: IC50 values ± SEM, MTT assay
Description: Human glioblastoma cell lines (A172 CRL-1620™, U-87 MG HTB-14™, U-118 MG HTB-15™, T98G CRL-1690™) and the mouse astrocyte cell line (C8-D1A CRL-2541™) were obtained from the American Type Culture Collection (ATCC, Manassas, VA, USA). The cell lines were cultured in complete medium: DMEM (Corning, Kennebunk, ME, USA) for C8-D1A and T98G, and EMEM (ATCC, Manassas, VA, USA) for A172, U-87 MG, U118MG. The media were supplemented with 10% foetal bovine serum (Eurx, Gdansk, Poland) and 1% penicillin-streptomycin solution (Corning, Kennebunk, ME, USA). Cells were cultured in cell culture flasks (Sarstedt, Numbrecht, Germany) at 37 °C in 5% CO2. For experiments, cells were washed with phosphate-buffered saline without calcium and magnesium (Corning, Kennebunk, ME, USA) and treated with 0.05% trypsin and 0.02% EDTA (Corning, Kennebunk, ME, USA). Cells were counted using a Sceptre 3.0 cell counter (Merck Millipore, Burlington, MA, USA) prior to seeding into plates. For 6-well plates, 5 x 10^5 cells/mL were seeded, while for 96-well plates (Sarstedt, Numbrecht, Germany), 1 x 10^5 cells/mL were seeded in 100 μL of the medium.
The cell lines were seeded in 96-well plates and cultured according to the methodology described in the previous section. Cells were then treated with the novel derivatives MM118 and MM119 and the reference compound temozolomide (TMZ) (Sigma-Aldrich, St. Louis, MO, USA) at concentrations of 0.1, 0.25, 0.5, 1.0, 2.5, 5.0, and 10.0 μM for 24 h. The MTT assay was performed using a solution of 3–(4,5-dimethyl-2-thiazolyl)-2,5-diphenyl-2H-tetrazolium bromide (Sigma-Aldrich, St. Louis, MO, USA) at a concentration of 5 mg/mL in phosphate-buffered saline without calcium and magnesium (Corning, Kennebunk, ME, USA). After 24 h incubation with test compounds, 10 μL MTT solution was added to each well, and cells were incubated for another 2 h at 37 °C. The cells were then lysed in 100 μL lysis buffer (25 mM HCl, 2% acetic acid, 3% DMF, and 5% SDS, adjusted to pH 4.7). Absorbance was measured at 570 nm using an Absorbance 96 microplate reader (Byonoy GmbH, Hamburg, Germany).

U-87 MG [3] = assay: Annexin V-FITC/PI apoptosis analysis, U-87 MG; assay type: cell-based, human; details: 1.5 μM, 24 h
Description: as §1, §2

caspase 8 = assay: Caspase 8 activation (FAM FLICA), U-87 MG; assay type: cell-based, human; details: 1.5 μM, 24 h
Description: The activity of caspase 1, caspase 3/7, caspase 8, and caspase 9 was evaluated through the utilisation of FAM FLICA Caspase Assays (ImmunoChemistry Technologies, Bloomington, MN, USA), in accordance with the established protocols. Following treatment with the compounds, the cells were collected at a concentration of 1 × 10^6 cells/mL, washed twice with cold PBS, and resuspended in 290 μL of PBS. The subsequent step involved the addition of 10 μL of 30X FLICA solution, followed by incubation at 37 °C in the absence of light for one hour. Then, 2 ml of Apoptosis Wash Buffer was added, and the samples were washed twice. A 300 μL aliquot of each sample was transferred to a BD FACSCanto II flow cytometer (Becton Dickinson Biosciences, San Jose, CA, USA), where 10,000 events per sample were recorded. The resulting data was then analysed using FACSDiva software, version 6.1.3 (BD Biosciences Systems, San Jose, CA, USA).

Compound	Decreased ΔΨm (cell population) (U-87 MG [1]) [%]	viability at 24 h, 1 µM [2] [%]	viability at 24 h, 1.5 µM [2] [%]	Early apoptotic cells (A172) [%]	Late apoptotic cells (A172) [%]	Necrotic cells (A172) [%]	IC50 (T98G) [µM]	Early apoptotic cells (U-87 MG [3]) [%]	Late apoptotic cells (U-87 MG [3]) [%]	Necrotic cells (U-87 MG [3]) [%]	Active caspase 8 (cell population) (caspase 8)	Viable cells (U-87 MG [3]) [%]
CCC(CO)NS(=O)(=O)c1ccc(-n2nc(C)c3nc4nnnn4nc32)cc1 (stereo in doubt) [MM118, N-(R)-(1-hydroxy-but-2-yl)-4-[7-methyl-5H-pyrazolo[4,3-e]tetrazolo[1,5-b][1]^,[2]^,[4]triazin-5-yl)]benzenesulfonamide]	54.88 ± 8.36	88.2	65.5 ± 5.06	3.03 ± 0.44	22.10 ± 6.56	9.50 ± 2.10	2.44 ± 0.393	10.28 ± 4.08	38.73 ± 4.09	2.30 ± 1.81	73.65 ± 3.76%	
CCC(CO)NS(=O)(=O)c1ccc(-n2nc(C)c3nc4nnnn4nc32)cc1 (stereo in doubt) [MM119, N-(S)-(1-hydroxy-but-2-yl)-4-[7-methyl-5H-pyrazolo[4,3-e]tetrazolo[1,5-b][1]^,[2]^,[4]triazin-5-yl)]benzenesulfonamide]	56.13 ± 13.97	90.7	74.8 ± 1.84	1.00 ± 0.28	18.80 ± 1.35	2.13 ± 0.62	4.41 ± 1.19	10.18 ± 4.45	37.40 ± 6.20	1.95 ± 1.42	69.15 ± 6.30%	
Cn1nnc2c(C(N)=O)ncn2c1=O [TMZ, temozolomide, reference compound]	7.05 ± 2.85		89.75 ± 0.71	1.55 ± 0.06	6.83 ± 0.39	1.90 ± 0.38	> 10	3.40 ± 1.63	4.73 ± 0.64	0.25 ± 0.24	No significant statistical differences	91.65 ± 1.58
